The source of these data is US20250177412A1, “SMALL-MOLECULE INHIBITORS TARGETING THE BOB1/OCT1 INTERFACE” (NANTES UNIVERSITE, priority 2022, published 2025).

Assay [1] concerns naïve B cells. Nature of the assay: In vitro plasmablast differentiation with naive B cells. The format is cell-based, human. The note with it: data not shown. An excerpt:
Blood samples were obtained from healthy volunteers provided by Sanquin Blood Supply Foundation (Amsterdam, the Netherlands) or from Etablissement Français du Sang (Nantes, France) after written consent was obtained. Peripheral blood mononuclear cells (PBMCs) were isolated through Ficoll-Paque gradient centrifugation on Lymphoprep (Nycomed). Total B cells were isolated from freshly purified PBMCs by negative selection (B cell Isolation Kit II; Miltenyi Biotech, 130-091-151) on magnetic columns using autoMACS Pro Separator according to the manufacturer's instructions. […] Ultimately, purity of the MACS-isolated CD19^+ B cells, CD19^+CD27^+IgD^− memory B cells and CD19^+CD27^−IgD^+ […] was assessed by flow cytometry; purity was >90% for B cells, >65% for memory B cells, and >85% for naive B cells. […]
B cells were stimulated to differentiate into plasmablasts using a two-phase cell culture protocol as previously described. […] At days 0, 4 and 7, B cells were stained with viability marker LIVE/DEAD Fixable Aqua Dead Cell Stain (Thermofisher) to identify dead cells, followed by extracellular staining with anti-human mAbs: anti-CD20 FITC, anti-IgD BUV395, anti-CD27 BUV737, anti-CD38 BV605 (all from BD Biosciences) and analyzed by flow cytometry (FACSCelesta™, BD Biosciences). […]

The test system of assay [2] is B cells. Description: GZMB+ B cell expansion. In kind it is cell-based, human. The settings on record: 10 μM added daily, day 3. As for the experimental part: B cells were kept unstimulated (B resting) or stimulated (B expanded) for 24 hours with the expansion mixture containing F(ab′)2 anti-BCR, CpG ODN, CD40L, IL-2, and IL-21. FIG. 6A-B show the expression level of granzyme B measured as frequency (FIG. 6A) and by the MFI (FIG. 6B) in DMSO-treated (compound 005-) and 10 μM compound 005-treated resting (open circles) and expanded for 3 days (closed circles) B cells. […] Representative offset histogram overlays showing median fluorescence intensity of staining of gated live […] with cell proliferation dye (CPD) (FIGS. 6C, 6E and 6F). […]
Primary total human B cells (1×10^6 cells/mL) were prestimulated for ˜24 h with the cocktail containing 10 ng/mL of IL-21 (Miltenyi Biotec), 5 μg/mL of F(ab′)2 anti-BCR Abs (Jackson ImmunoResearch Laboratories Inc.), 50 ng/ml of CD40L (R&D systems), 1 μg/mL of CpG oligonucleotides (ODN 2006, Invivogen), and 50 U/mL of IL-2 (Novartis) as previously described, in the presence of vehicle (DMSO) or 10 μM compound 005. […] The capacity of B cells to suppress effector T cell proliferation was assessed as previously described. […] T cell proliferation was evaluated as the percentage of CPD-low T cells on day 3. […]

On to `Cc1ccc(NC(=O)C2CN(c3nc(NCCCc4ccc(F)cc4)nc(NCCC(=O)O)n3)c3ccccc3O2)cc1Cl` (centres unmarked) [compound 005, 3-((4-(2-((3-chloro-4-methylphenyl)carbamoyl)-2,3-dihydro-4H-benzo[b][1,4]oxazin-4-yl)-6-((3-(4-fluorophenyl)propyl)amino)-1,3,5-triazin-2-yl)amino)propanoic acid], for which, in assay [1], the “effect on proliferation, CD38 and CD20 expression and plasmablast differentiation” value is reported as “comparable dose-dependent effect”. Moreover, the GZMB expression entry in assay [2] was “did not affect”.
